Test results as given in PMC9076067 (RSC Advances, 2019).
Converted amounts (≈) assume the structure as drawn. Values belong to the molecule of their own block, whether it stands above or below them.

How the values were obtained:
[1] = tested on: MRSA; conditions: cited from earlier work
[2] = tested on: Staphylococcus aureus; conditions: cited from earlier work
[3] = parallel artificial membrane permeability assay; assay type: in vitro ADME; conditions: 200 μM in PBS pH 7.4, five hours, room temperature
[4] = tested on: Staphylococcus epidermidis ATCC12228; assay: MIC/MBC by micro-dilution broth method; assay type: cell-based; conditions: S. epidermidis ATCC 12228
[5] = tested on: Micrococcus luteus ATCC10240; assay: MIC/MBC by micro-dilution broth method; assay type: cell-based
[6] = tested on: Staphylococcus aureus ATCC6538; assay: MIC/MBC by micro-dilution broth method; assay type: cell-based; conditions: S. aureus ATCC 6538
[7] = tested on: Staphylococcus aureus ATCC43300; assay: MIC/MBC by micro-dilution broth method; assay type: cell-based; conditions: S. aureus ATCC 43300
[8] = tested on: Streptococcus mutans ATCC25175; assay: MIC/MBC by micro-dilution broth method; assay type: cell-based; conditions: S. mutans ATCC 25175

Structure (SMILES): O=C1NC(=S)SC1=Cc1ccc(F)c(F)c1F [5-(2,3,4-trifluorobenzylidene)-rhodanine]
- concentration inhibiting growth [1]: 32 mg/L
- concentration inhibiting growth [2]: 0.5 mg/L

Structure (SMILES): O=C(O)CN1C(=O)/C(=C/c2ccc(-c3ccc(N(c4ccccc4)c4ccccc4)cc3)cc2)SC1=S [5a, (Z)-2-(5-((4′-(Diphenylamino)-(1,1′-biphenyl)-4-yl)methylene)-4-oxo-2-thioxothiazolidin-3-yl)acetic acid]
- ability to penetrate the membrane (PAMPA) [3]: none of the tested compounds had the ability to penetrate the cell membrane

Structure (SMILES): O=C(O)CN1C(=O)/C(=C/c2ccc(-c3ccc(N(c4ccccc4)c4ccccc4)cc3)c3ccccc23)SC1=S [5b, (Z)-2-(5-((4-(4-(Diphenylamino)phenyl)naphthalen-1-yl)methylene)-4-oxo-2-thioxothiazolidin-3-yl)acetic acid]
- ability to penetrate the membrane (PAMPA) [3]: none of the tested compounds had the ability to penetrate the cell membrane

Structure (SMILES): O=C(O)CN1C(=O)/C(=C/c2c3ccccc3c(-c3ccc(N(c4ccccc4)c4ccccc4)cc3)c3ccccc23)SC1=S [5c, (Z)-2-(5-((10-(4-(Diphenylamino)phenyl)anthracen-9-yl)methylene)-4-oxo-2-thioxothiazolidin-3-yl)acetic acid]
- ability to penetrate the membrane (PAMPA) [3]: none of the tested compounds had the ability to penetrate the cell membrane

- MIC [4]: 1.95 mg/L (≈ 3.86 µM)
- MIC ([5]; M. luteus ATCC 10240): 1.95 mg/L (≈ 3.86 µM)
- MIC/MBC ([5]; ratio, ATCC 10240): 16
- MIC [6]: 1.95 mg/L (≈ 3.86 µM)
- MIC [7]: 1.95 mg/L (≈ 3.86 µM)
- MIC [8]: 62.5 mg/L (≈ 124 µM)
Structure (SMILES): O=C(O)CN1C(=O)/C(=C/c2ccc(-c3ccc(N(c4ccccc4)c4ccccc4)cc3)cc2)NC1=S [7a, (Z)-2-(5-((4′-(Diphenylamino)-(1,1′-biphenyl)-4-yl)methylene)-4-oxo-2-thioxoimidazolidin-3-yl)acetic acid]
